Experimental data taken from the NIST ThermoML archive (doi:10.1016/j.jct.2018.02.018).
± gives the expanded uncertainty stated by the source.

Key:
[1] = refractive index (Na D-line) (dimensionless); xn = mol fraction of the nth substance listed; settings: 100 kPa, Liquid, Standard Abbe refractometry
[2] = xn = mol fraction of the nth substance listed; settings: 100 kPa, Liquid; for speed of sound: Frequency=3 MHz, Single path-length method; for mass density: Vibrating tube method

NCCO [2-aminoethan-1-ol] + C[S+](C)[O-]
Settings	mass density, [2] [kg/m3]	refractive index, [1]	speed of sound, [2] [m/s]
293.15 K, x2 = 0	1016 ± 4	1.455 ± 0.006	1734.2 ± 1.7
293.15 K, x2 = 0.1026	1026 ± 4	1.457 ± 0.006	1701.8 ± 1.7
293.15 K, x2 = 0.2008	1035 ± 4	1.46 ± 0.006	1672.3 ± 1.6
293.15 K, x2 = 0.2981	1043 ± 4	1.462 ± 0.006	1645.9 ± 1.6
293.15 K, x2 = 0.3966	1051 ± 4	1.465 ± 0.006	1619.8 ± 1.6
293.15 K, x2 = 0.4933	1059 ± 4	1.467 ± 0.006	1595.4 ± 1.6
293.15 K, x2 = 0.6021	1068 ± 4	1.469 ± 0.006	1571.2 ± 1.5
293.15 K, x2 = 0.6969	1076 ± 4	1.472 ± 0.006	1550.6 ± 1.5
293.15 K, x2 = 0.7998	1083 ± 4	1.474 ± 0.006	1533.3 ± 1.5
293.15 K, x2 = 0.9005	1092 ± 4	1.476 ± 0.006	1517.8 ± 1.5
303.15 K, x2 = 0	1008 ± 4	1.451 ± 0.006	1702.2 ± 1.7
303.15 K, x2 = 0.1026	1017 ± 4	1.454 ± 0.006	1669.2 ± 1.7
303.15 K, x2 = 0.2008	1026 ± 4	1.455 ± 0.006	1639.1 ± 1.6
303.15 K, x2 = 0.2981	1034 ± 4	1.458 ± 0.006	1611.9 ± 1.6
303.15 K, x2 = 0.3966	1042 ± 4	1.46 ± 0.006	1585.5 ± 1.6
303.15 K, x2 = 0.4933	1050 ± 4	1.463 ± 0.006	1561.2 ± 1.6
303.15 K, x2 = 0.6021	1058 ± 4	1.465 ± 0.006	1537 ± 1.5
303.15 K, x2 = 0.6969	1066 ± 4	1.467 ± 0.006	1516.6 ± 1.5
303.15 K, x2 = 0.7998	1074 ± 4	1.469 ± 0.006	1499 ± 1.5
303.15 K, x2 = 0.9005	1082 ± 4	1.472 ± 0.006	1484 ± 1.5
313.15 K, x2 = 0	1000 ± 4	1.447 ± 0.006	1669.4 ± 1.7
313.15 K, x2 = 0.1026	1009 ± 4	1.45 ± 0.006	1636.3 ± 1.7
313.15 K, x2 = 0.2008	1017 ± 4	1.452 ± 0.006	1605.3 ± 1.7
313.15 K, x2 = 0.2981	1025 ± 4	1.454 ± 0.006	1578.3 ± 1.6
313.15 K, x2 = 0.3966	1033 ± 4	1.456 ± 0.006	1551.7 ± 1.6
313.15 K, x2 = 0.4933	1041 ± 4	1.458 ± 0.006	1527.2 ± 1.6
313.15 K, x2 = 0.6021	1049 ± 4	1.461 ± 0.006	1503 ± 1.5
313.15 K, x2 = 0.6969	1057 ± 4	1.463 ± 0.006	1483.1 ± 1.5
313.15 K, x2 = 0.7998	1064 ± 4	1.465 ± 0.006	1465.2 ± 1.5
313.15 K, x2 = 0.9005	1072 ± 4	1.468 ± 0.006	1449.9 ± 1.5
323.15 K, x2 = 0	992 ± 4	1.443 ± 0.006	1637.3 ± 1.7
323.15 K, x2 = 0.1026	1001 ± 4	1.446 ± 0.006	1603.2 ± 1.7
323.15 K, x2 = 0.2008	1009 ± 4	1.449 ± 0.006	1571.9 ± 1.7
323.15 K, x2 = 0.2981	1017 ± 4	1.45 ± 0.006	1544.7 ± 1.6
323.15 K, x2 = 0.3966	1024 ± 4	1.452 ± 0.006	1517.9 ± 1.6
323.15 K, x2 = 0.4933	1031 ± 4	1.454 ± 0.006	1493.4 ± 1.6
323.15 K, x2 = 0.6021	1039 ± 4	1.457 ± 0.006	1469.3 ± 1.5
323.15 K, x2 = 0.6969	1047 ± 4	1.459 ± 0.006	1449.4 ± 1.5
323.15 K, x2 = 0.7998	1054 ± 4	1.461 ± 0.006	1431.7 ± 1.5
323.15 K, x2 = 0.9005	1062 ± 4	1.463 ± 0.006	1416.4 ± 1.5

CN(C)CCCO [3-dimethylamino-1-propanol] + C[S+](C)[O-]
Settings	mass density, [2] [kg/m3]	refractive index, [1]	speed of sound, [2] [m/s]
293.15 K, x2 = 0	885 ± 4	1.437 ± 0.006	1395.8 ± 1.7
293.15 K, x2 = 0.0517	891 ± 4	1.438 ± 0.006	1397.6 ± 1.7
293.15 K, x2 = 0.0986	898 ± 4	1.439 ± 0.006	1398.4 ± 1.7
293.15 K, x2 = 0.1998	911 ± 4	1.442 ± 0.006	1401.4 ± 1.6
293.15 K, x2 = 0.3	927 ± 4	1.444 ± 0.006	1405.2 ± 1.6
293.15 K, x2 = 0.3998	944 ± 4	1.447 ± 0.006	1411.3 ± 1.6
293.15 K, x2 = 0.5031	963 ± 4	1.451 ± 0.006	1418.8 ± 1.6
293.15 K, x2 = 0.5988	983 ± 4	1.455 ± 0.006	1428.3 ± 1.5
293.15 K, x2 = 0.6998	1007 ± 4	1.46 ± 0.006	1441.3 ± 1.5
293.15 K, x2 = 0.7918	1032 ± 4	1.465 ± 0.006	1456 ± 1.5
293.15 K, x2 = 0.899	1065 ± 4	1.472 ± 0.006	1478 ± 1.5
293.15 K, x2 = 0.9494	1082 ± 4	1.476 ± 0.006	1489.6 ± 1.5
303.15 K, x2 = 0	877 ± 4	1.433 ± 0.006	1358.8 ± 1.7
303.15 K, x2 = 0.0517	883 ± 4	1.434 ± 0.006	1360.9 ± 1.7
303.15 K, x2 = 0.0986	889 ± 4	1.435 ± 0.006	1361.8 ± 1.7
303.15 K, x2 = 0.1998	903 ± 4	1.437 ± 0.006	1365.3 ± 1.6
303.15 K, x2 = 0.3	918 ± 4	1.44 ± 0.006	1369.9 ± 1.6
303.15 K, x2 = 0.3998	935 ± 4	1.443 ± 0.006	1375.7 ± 1.6
303.15 K, x2 = 0.5031	954 ± 4	1.447 ± 0.006	1383.9 ± 1.6
303.15 K, x2 = 0.5988	974 ± 4	1.451 ± 0.006	1393.6 ± 1.5
303.15 K, x2 = 0.6998	998 ± 4	1.456 ± 0.006	1406.9 ± 1.5
303.15 K, x2 = 0.7918	1023 ± 4	1.46 ± 0.006	1421.8 ± 1.5
303.15 K, x2 = 0.899	1055 ± 4	1.467 ± 0.006	1444.5 ± 1.5
303.15 K, x2 = 0.9494	1072 ± 4	1.471 ± 0.006	1455.9 ± 1.5
313.15 K, x2 = 0	869 ± 4	1.429 ± 0.006	1322.1 ± 1.7
313.15 K, x2 = 0.0517	875 ± 4	1.43 ± 0.006	1324.4 ± 1.7
313.15 K, x2 = 0.0986	881 ± 4	1.431 ± 0.006	1325.4 ± 1.7
313.15 K, x2 = 0.1998	895 ± 4	1.433 ± 0.006	1328.9 ± 1.6
313.15 K, x2 = 0.3	910 ± 4	1.436 ± 0.006	1334.4 ± 1.6
313.15 K, x2 = 0.3998	926 ± 4	1.439 ± 0.006	1340.7 ± 1.6
313.15 K, x2 = 0.5031	946 ± 4	1.443 ± 0.006	1349.3 ± 1.6
313.15 K, x2 = 0.5988	965 ± 4	1.447 ± 0.006	1359.3 ± 1.5
313.15 K, x2 = 0.6998	989 ± 4	1.451 ± 0.006	1372.9 ± 1.5
313.15 K, x2 = 0.7918	1013 ± 4	1.456 ± 0.006	1388.1 ± 1.5
313.15 K, x2 = 0.899	1046 ± 4	1.463 ± 0.006	1410.9 ± 1.5
313.15 K, x2 = 0.9494	1062 ± 4	1.467 ± 0.006	1422.3 ± 1.5
323.15 K, x2 = 0	860 ± 4	1.425 ± 0.006	1285.7 ± 1.7
323.15 K, x2 = 0.0517	867 ± 4	1.426 ± 0.006	1288.2 ± 1.7
323.15 K, x2 = 0.0986	873 ± 4	1.427 ± 0.006	1289.5 ± 1.7
323.15 K, x2 = 0.1998	886 ± 4	1.429 ± 0.006	1293.8 ± 1.6
323.15 K, x2 = 0.3	901 ± 4	1.432 ± 0.006	1299.3 ± 1.6
323.15 K, x2 = 0.3998	918 ± 4	1.435 ± 0.006	1306.1 ± 1.6
323.15 K, x2 = 0.5031	937 ± 4	1.439 ± 0.006	1315.1 ± 1.6
323.15 K, x2 = 0.5988	956 ± 4	1.443 ± 0.006	1325.5 ± 1.5
323.15 K, x2 = 0.6998	980 ± 4	1.447 ± 0.006	1339.4 ± 1.5
323.15 K, x2 = 0.7918	1004 ± 4	1.452 ± 0.006	1354.7 ± 1.5
323.15 K, x2 = 0.899	1036 ± 4	1.459 ± 0.006	1377.6 ± 1.5
323.15 K, x2 = 0.9494	1052 ± 4	1.462 ± 0.006	1389 ± 1.5
